# Where two headings read alike, the source gives them in different places. Where a SMILES comes first, the peptide text is derived from it. Bridges are numbered along the chain shown (N, C = ends). Where no end group is shown, it is not given here.
# Columns and labels:
# [1] = biological target: T1, Kv1.1-1.2 dimer-containing channel (Rattus norvegicus, UniProt P10499+P63142); assay: Whole-cell voltage-clamp inhibition of K+ current, dimer-containing channel; type: cell-based; settings: HEK-293 cells
# T1 construct: expressed in transfected cells
# T1 sequence (P10499 whole entry): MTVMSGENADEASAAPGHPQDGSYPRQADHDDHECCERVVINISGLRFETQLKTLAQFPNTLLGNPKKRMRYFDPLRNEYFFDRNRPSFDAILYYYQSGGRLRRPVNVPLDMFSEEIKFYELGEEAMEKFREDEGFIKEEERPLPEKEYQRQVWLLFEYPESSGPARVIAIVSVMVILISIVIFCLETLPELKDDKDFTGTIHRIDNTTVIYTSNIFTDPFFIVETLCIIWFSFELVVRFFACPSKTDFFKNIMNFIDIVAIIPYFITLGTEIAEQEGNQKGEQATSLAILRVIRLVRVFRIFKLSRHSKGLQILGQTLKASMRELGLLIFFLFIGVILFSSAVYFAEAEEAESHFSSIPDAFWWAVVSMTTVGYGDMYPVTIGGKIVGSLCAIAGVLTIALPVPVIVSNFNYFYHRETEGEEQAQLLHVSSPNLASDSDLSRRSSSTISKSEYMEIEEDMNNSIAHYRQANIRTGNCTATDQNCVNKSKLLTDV
# T1 sequence (P63142 whole entry): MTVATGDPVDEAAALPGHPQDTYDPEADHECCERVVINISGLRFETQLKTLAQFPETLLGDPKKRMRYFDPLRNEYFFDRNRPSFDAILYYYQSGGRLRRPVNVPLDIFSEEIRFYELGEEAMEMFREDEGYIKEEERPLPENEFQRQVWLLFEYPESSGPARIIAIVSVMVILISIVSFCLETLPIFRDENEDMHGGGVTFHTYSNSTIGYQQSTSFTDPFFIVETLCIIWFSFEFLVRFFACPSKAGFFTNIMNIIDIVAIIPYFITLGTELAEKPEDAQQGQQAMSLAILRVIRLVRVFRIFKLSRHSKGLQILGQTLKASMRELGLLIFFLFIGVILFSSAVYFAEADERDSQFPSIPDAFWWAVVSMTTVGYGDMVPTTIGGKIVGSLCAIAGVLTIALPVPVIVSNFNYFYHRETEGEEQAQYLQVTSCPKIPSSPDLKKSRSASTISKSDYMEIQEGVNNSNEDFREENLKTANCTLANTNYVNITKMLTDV
# Experimental: (§1) Whole-cell voltage-clamp experiments were performed as outlined in Sokolov, et al., Neuropharmacol. 53:2, 272-282, (2007), whose disclosure is hereby incorporated by reference. The internal solution was (in mM): 90 KCl, 50 KF, 30 KOH, 10 EGTA, 20 HEPES, pH 7.4. The extracellular bath solution contained (in mM) 135 choline chloride, 20 KOH, 1.8 CaCl2, 1 MgCl2, and 40 HEPES, pH 7.4, and 0.01% (w/v) BSA. Solutions were exchanged by continuous flow with a peristaltic pump or a Cellectricon Dynaflow-16 system. Series resistance compensation was applied to minimize the voltage error (<10 mV). Correction was made for a calculated liquid junction potential of +8.4 mV. Holding potential was −100 mV. Leak subtraction was used to isolate K^+ current (IK). Analogue traces were filtered at 5 kHz, and sampled at 50 kHz. Non-linear fitting was carried out with equations described in (Sack et al., Gen. Physiol. 128:1, 119-132, (2006), whose disclosure is hereby incorporated by reference. Data are reported as mean±standard error; n values refer to number of individual cells tested. Statistical significance was evaluated by two-tailed Student's t-test using data obtained from at least five independent experiments performed in parallel.
# (§2) In these examples, the functional properties of the Kv1 heteromers Kv1.1-1.1-1.2-1.2, Kv1.1-1.2-1.1-1.2, […] and Kv1.2-1.1-1.2-1.1 were compared by whole-cell, voltage-clamp, conventional recordings from HEK-293 cells transfected separately with each of the 4 constructs.
# (§3) In these examples the sensitivities of the potassium channel currents mediated by these tetramers to various blockers were also examined. Inhibition by TEA, or Agitoxinl (AgTX1) and TsTX-Kα were determined.
# (§4) Whole-cell voltage-clamp was performed as described in Example 25-27, except where specified. […] Whole cell currents were measured at a holding potential of −100 mV, then depolarised to +60 mV for 200 ms or stepped from the holding potential in +10 mV increments. […]
# [2] = biological target: T2, Kv1.2-1.2-1.1-1.1 (reverse adjacent channel) (Rattus norvegicus, UniProt P10499+P63142); assay: Whole-cell voltage-clamp (QPatch) inhibition of K+ current, reverse adjacent channel; type: cell-based; settings: HEK-293 cells, holding −100 mV, depolarised to +60 mV
# T2 construct: nucleic acids encoding the full-length Kv subunit; inter-subunit linker to next subunit (region from Xenopus beta-globin UTRs); expressed in transfected cells; host or cells: HEK-293 (pIRES2-EGFP vector)
# T2 sequence (P63142 whole entry): as above
# T2 sequence (P63142 whole entry): as above
# T2 sequence (P10499 whole entry): as the sequence (P10499 whole entry) above
# T2 sequence (P10499 whole entry): as above
# Experimental: as §1, §2, §3, §4
# [3] = biological target: T3, Kv1.2-1.1-1.2-1.1 (reverse diagonal channel) (Rattus norvegicus, UniProt P10499+P63142); assay: Whole-cell voltage-clamp (QPatch) inhibition of K+ current, reverse diagonal channel; type: cell-based; settings: HEK-293 cells
# T3 construct: nucleic acids encoding the full-length Kv subunit; inter-subunit linker to next subunit (region from Xenopus beta-globin UTRs); expressed in transfected cells; host or cells: HEK-293 (pIRES2-EGFP vector)
# T3 sequence (P63142 whole entry): as the sequence (P63142 whole entry) above
# T3 sequence (P10499 whole entry): as the sequence (P10499 whole entry) above
# T3 sequence (P63142 whole entry): as the sequence (P63142 whole entry) above
# T3 sequence (P10499 whole entry): as the sequence (P10499 whole entry) above
# Experimental: as §1, §2, §3, §4
# [4] = biological target: T4, Kv1.1-1.1-1.2-1.2 (forward adjacent channel) (Rattus norvegicus, UniProt P10499+P63142); assay: Whole-cell voltage-clamp (QPatch) inhibition of K+ current, adjacent channel; type: cell-based; settings: for IC50: HEK-293 cells, holding −100 mV, depolarised to +60 mV
# T4 construct: nucleic acids encoding the full-length Kv subunit; inter-subunit linker to next subunit (region from Xenopus beta-globin UTRs); expressed in transfected cells; host or cells: HEK-293 (pIRES2-EGFP vector)
# T4 sequence (P10499 whole entry): as above
# T4 sequence (P10499 whole entry): as above
# T4 sequence (P63142 whole entry): as the sequence (P63142 whole entry) above
# T4 sequence (P63142 whole entry): as above
# Experimental: as §1, §2, §3
# (§5) Whole-cell voltage-clamp was performed as described in Example 25-27, except where specified. For larger scale recordings, an automated patch-clamp system (QPatch 16, Sophion, Denmark) was used; its disposable Qplates contain 16 individual and parallel patch-clamp positions. Cells were detached from culture plates with 0.05% trypsin/EDTA solution and kept in serum-free medium (CHO-S-SFM II [Invitrogen], 25 mM HEPES, pH 7.4, 0.04 μg/ml soya bean trypsin inhibitor, and 10 μg/ml penicillin-streptomycin) in an on-board stirred reservoir. Prior to testing, the cells were automatically transferred to an integral mini-centrifuge, pelleted, re-suspended in external solution (as detailed above) and washed before being applied to the pipeting wells in the Q plate. Giga-seals were formed upon execution of a combined suction/voltage protocol; gradually increasing suction leads to the whole-cell configuration. […] Whole cell currents were measured at a holding potential of −100 mV, then depolarised to +60 mV for 200 ms or stepped from the holding potential in +10 mV increments. […]
# [5] = biological target: T5, Kv1.1-1.2-1.1-1.2 (forward diagonal channel) (Rattus norvegicus, UniProt P10499+P63142); assay: Whole-cell voltage-clamp (QPatch) inhibition of K+ current, diagonal channel; type: cell-based; settings: for IC50: HEK-293 cells
# T5 construct: nucleic acids encoding the full-length Kv subunit; inter-subunit linker to next subunit (region from Xenopus beta-globin UTRs); expressed in transfected cells; host or cells: HEK-293 (pIRES2-EGFP vector)
# T5 sequence (P10499 whole entry): as the sequence (P10499 whole entry) above
# T5 sequence (P63142 whole entry): as the sequence (P63142 whole entry) above
# T5 sequence (P10499 whole entry): as the sequence (P10499 whole entry) above
# T5 sequence (P63142 whole entry): as the sequence (P63142 whole entry) above
# Experimental: as §1, §2, §3, §5
# [6] = biological target: T6, Kv1.1-1.1-1.2-1.2 tetramer (Rattus norvegicus, UniProt P10499+P63142); assay: Competition of 125I-αDTX binding to transfected HEK-293 cells; design: displacement of 125I-αDTX from the tetramer: dose or concentration left out as unconfirmed; settings: for displacement of 125I-αDTX from the tetramer: transfected HEK-293 cells, FIG. 4B
# T6 construct: nucleic acids encoding the full-length Kv subunit; inter-subunit linker to next subunit (region from Xenopus beta-globin UTRs); expressed in transfected cells; host or cells: HEK-293 (pIRES2-EGFP vector)
# T6 sequence (P10499 whole entry): as the sequence (P10499 whole entry) above
# T6 sequence (P10499 whole entry): as above
# T6 sequence (P63142 whole entry): as the sequence (P63142 whole entry) above
# T6 sequence (P63142 whole entry): as above
# Experimental: HEK 293 cells are transiently transfected with a PIRES2-EGFP vector encoding Kv1.1-1.1-1.2-1.2 (also referred to as forward adjacent channel; see below) and the cells incubated to display the potassium channels on the cell membranes.
# Cells are harvested in 25 mM Tris HCl, 5 mM KCl pH 7.5 Saturatable binding of ^125I-α-dendrotoxin (DTX), a Kv1-selective toxin, was performed using a filtration assay to measure the amount of assembled channel targeted to the plasmalemma. Transfected cells suspended in binding buffer were incubated for 1 hour with increasing concentrations of labelled DTX; for non-saturable binding experiments, the incubation is performed in the presence of 1 μM unlabeled DTX. Measurements are made in triplicate under established conditions by rapid filtration through GF/F glass microfiber filters presoaked with 0.5% (w/v) polyethyleneimine. The radioactivity associated with the washed filters was quantified by γ-radiation counting.
# In FIG. […]
# Kv1.4-1.6-1.1-1.2 = biological target: T7, Kv1.4-1.6-1.1-1.2 (Rattus norvegicus, UniProt P10499+P15385+P17659+P63142); assay: Whole-cell voltage-clamp inhibition of IK, Kv1.4-containing hetero-tetramers; type: cell-based; settings: Kv1.4-1.6-1.1-1.2 versus Kv1.4-1.6-1.3-1.2; 1, 10, 100 nM; assayed at ≦0 mV, FIG. 10F
# T7 construct: nucleic acids encoding the full-length Kv subunit; inter-subunit linker to next subunit (region from Xenopus beta-globin UTRs); expressed in transfected cells; host or cells: HEK-293
# T7 sequence (P15385 whole entry): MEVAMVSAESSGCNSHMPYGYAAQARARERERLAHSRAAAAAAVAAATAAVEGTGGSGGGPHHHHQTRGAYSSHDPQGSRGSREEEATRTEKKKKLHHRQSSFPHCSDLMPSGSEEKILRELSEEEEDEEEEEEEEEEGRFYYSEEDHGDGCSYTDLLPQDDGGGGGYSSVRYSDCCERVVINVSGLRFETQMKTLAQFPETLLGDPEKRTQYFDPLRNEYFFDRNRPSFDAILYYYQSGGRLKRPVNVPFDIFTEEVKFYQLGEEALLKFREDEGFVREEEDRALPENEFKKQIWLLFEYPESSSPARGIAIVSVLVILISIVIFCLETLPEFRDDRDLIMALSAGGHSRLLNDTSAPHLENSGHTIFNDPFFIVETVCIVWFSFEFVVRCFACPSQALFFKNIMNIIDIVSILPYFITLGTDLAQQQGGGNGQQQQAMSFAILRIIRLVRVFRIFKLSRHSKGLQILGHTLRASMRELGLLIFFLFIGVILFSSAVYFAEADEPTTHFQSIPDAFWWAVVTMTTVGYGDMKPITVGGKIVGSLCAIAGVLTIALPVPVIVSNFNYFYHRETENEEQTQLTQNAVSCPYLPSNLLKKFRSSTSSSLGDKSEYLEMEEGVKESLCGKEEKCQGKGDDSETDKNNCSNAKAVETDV
# T7 sequence (P17659 whole entry): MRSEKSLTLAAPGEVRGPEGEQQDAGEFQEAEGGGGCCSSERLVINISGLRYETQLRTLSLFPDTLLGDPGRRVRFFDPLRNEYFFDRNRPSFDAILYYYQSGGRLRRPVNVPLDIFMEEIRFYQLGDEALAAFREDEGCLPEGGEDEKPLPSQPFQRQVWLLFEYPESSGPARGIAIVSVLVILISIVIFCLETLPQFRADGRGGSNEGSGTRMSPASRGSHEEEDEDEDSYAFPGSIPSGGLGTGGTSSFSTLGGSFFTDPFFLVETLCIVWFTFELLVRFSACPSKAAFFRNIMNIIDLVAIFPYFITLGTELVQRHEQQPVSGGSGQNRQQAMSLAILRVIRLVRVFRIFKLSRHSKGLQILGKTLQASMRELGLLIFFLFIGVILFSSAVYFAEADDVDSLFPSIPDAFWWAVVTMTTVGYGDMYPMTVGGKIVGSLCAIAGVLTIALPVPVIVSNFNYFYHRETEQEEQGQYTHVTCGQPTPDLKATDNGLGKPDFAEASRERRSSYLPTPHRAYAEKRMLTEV
# T7 sequence (P10499 whole entry): as the sequence (P10499 whole entry) above
# T7 sequence (P63142 whole entry): as the sequence (P63142 whole entry) above
# Experimental: In these examples, the functional properties of the concatenated Kv1 heteromers Kv 1.1-1.1-1.2-1.2, Kv1.4-1.6-1.1-1.2 and Kv1.4-1.6-1.3-1.2 were examined by whole-cell voltage-clamped recordings from the corresponding transfected HEK-293 cells. The activation kinetics of the currents mediated by Kv 1.1-1.1-1.2-1.2 Kv 1.4-1.6-1.1-1.2 and Kv1.4-1.6-1.3-1.2 were determined.
# The sensitivities of the potassium channel currents mediated by Kv 1.1-1.1-1.2-1.2 Kv 1.4-1.6-1.1-1.2 and Kv1.4-1.6-1.3-1.2 to various blockers were also examined in these examples.
# Whole-cell voltage-clamp experiments were performed as outlined in Sokolov, et al., Neuropharmacol. 53:2, 272-282, (2007), whose disclosure is hereby incorporated by reference. The internal solution was (in mM): 90 KCl, 50 KF, 30 KOH, 10 EGTA, 20 HEPES, pH 7.4. […] Correction was made for a calculated liquid junction potential of +8.4 mV. […] Non-linear fitting was carried out with equations described in (Sack et al., Gen. Physiol. 128:1, 119-132, (2006), whose disclosure is hereby incorporated by reference. Data are reported as mean±standard error; n values refer to number of individual cells tested. Statistical significance was evaluated by two-tailed Student's t-test using data obtained from at least five independent experiments performed in parallel.
# [7] = unit printed in cell (row head says nM), read-out: IC50 AgTx1
# [8] = holding −100 mV, depolarised to +60 mV, read-out: IC50 TEA
# [9] = unit printed in cell (row head says nM), read-out: IC50 TsTxKα
compound,measurement,setting,value
"CC[C@H](C)[C@@H]1NC(=O)[C@@H]2CSSC[C@H](NC(=O)[C@H](CCCCN)NC(=O)[C@@H](NC(=O)[C@H](CC(N)=O)NC(=O)[C@@H](NC(=O)[C@@H]3CCCN3C(=O)[C@@H](NC(=O)CN)C(C)C)[C@@H](C)CC)C(C)C)C(=O)N[C@@H]([C@@H](C)O)C(=O)NCC(=O)N[C@@H](CO)C(=O)N3CCC[C@H]3C(=O)N[C@@H](CCC(N)=O)C(=O)N[C@H]3CSSC[C@H](NC(=O)[C@H](CCCCN)NC(=O)CNC(=O)[C@H](CC(N)=O)NC1=O)C(=O)N[C@@H](Cc1c[nH]cn1)C(=O)N[C@H](C(=O)N[C@H](C(=O)N1CCC[C@H]1C(=O)N[C@@H](CCCCN)C(=O)O)[C@@H](C)O)CSSC[C@H](NC(=O)[C@@H]1CCCN1C(=O)[C@H](CCCCN)NC(=O)[C@H](CC(C)C)NC3=O)C(=O)N[C@@H](CCCCN)C(=O)N[C@@H](CC(=O)O)C(=O)N[C@@H](C)C(=O)NCC(=O)N[C@@H](CCSC)C(=O)N[C@@H](CCCNC(=N)N)C(=O)N[C@@H](Cc1ccccc1)C(=O)NCC(=O)N[C@@H](CCCCN)C(=O)N2 [AgTx1, Agitoxinl] (H-GVPINVKCTGSPQCLKPCKDAGMRFGKCINGKCHCTPK-OH; disulfide 8-28, 14-33, 18-35; N-terminus and C-terminus assumed)",IC50,[1]; read-out: IC50 AgTx1,0.039 ± 0.004 µM
same,IC50,[2]; read-out: IC50 AgTx1,0.005 ± 0.0005 µM
same,IC50,[3]; [7],≥ 1000 nM
same,IC50,[4]; read-out: IC50 AgTx1,0.005 ± 0.0004 µM
same,IC50,[5]; [7],> 1000 nM
same,sensitivity to AgTX1,"[5]; diagonal oligomers, FIG. 12C",virtually insensitive
"CC[N+](CC)(CC)CC [TEA, tetraethylammonium]",IC50,[1]; read-out: IC50 TEA,12000 ± 1000 µM
same,IC50,[2]; read-out: IC50 TEA,6700 ± 2000 µM
same,IC50,[3]; [8],960000 ± 140000 nM
same,IC50,[4]; read-out: IC50 TEA,9700 ± 1000 µM
same,fold lower affinity for TEA than the corresponding diagonals,"[4]; forward and reverse adjacent channels versus diagonal channels, FIG. 12B",~11 fold
same,IC50,[5]; [8],760000 ± 100000 nM
"CC[C@H](C)[C@@H]1NC(=O)[C@H](C)NC(=O)[C@H](CCC(=O)O)NC(=O)[C@H](CCCCN)NC(=O)[C@@H]2CSSC[C@@H](C(=O)N[C@@H](Cc3ccc(O)cc3)C(=O)N3CCC[C@H]3C(=O)O)NC(=O)[C@H](CCCCN)NC(=O)[C@@H]3CSSC[C@H](NC(=O)[C@H](CCC(=O)O)NC(=O)[C@@H]4CCCN4C(=O)[C@H](CO)NC(=O)CNC(=O)[C@H](CCCNC(=N)N)NC(=O)[C@@H](NC(=O)[C@H](CCCCN)NC(=O)[C@H](C)NC(=O)[C@H](CC(N)=O)NC(=O)[C@@H](NC(=O)[C@H](Cc4ccccc4)NC(=O)[C@@H](N)C(C)C)[C@@H](C)CC)CSSC[C@H](NC(=O)[C@H](CCCCN)NC(=O)CNC(=O)[C@H](C)NC(=O)[C@H](C)NC(=O)[C@H](CCCCN)NC(=O)CNC1=O)C(=O)N[C@@H](CCSC)C(=O)N[C@@H](CC(N)=O)C(=O)NCC(=O)N[C@@H](CCCCN)C(=O)N3)C(=O)N[C@@H](CC(C)C)C(=O)N1CCC[C@H]1C(=O)N[C@@H](CCCCN)C(=O)N2 [TsTxKα, tityustoxin-Kα] (H-VFINAKCRGSPECLPKCKEAIGKAAGKCMNGKCKCYP-OH; disulfide 7-28, 13-33, 17-35; N-terminus and C-terminus assumed)",IC50,[1]; read-out: IC50 TsTxKα,0.033 ± 0.003 µM
same,IC50,[2]; read-out: IC50 TsTxKα,0.025 ± 0.007 µM
same,IC50,[3]; [9],> 1000 nM
same,displacement of 125I-αDTX from the tetramer,[6],readily displaced
same,IC50,[4]; read-out: IC50 TsTxKα,0.026 ± 0.003 µM
same,IC50,[5]; [9],> 1000 nM
"DTXk: toxin, Kv1 channel blocker competing with 125I-αDTX (AAKYCKLPLRIGPCKRKIPSFYYKWKAKQCLPFDYSGCGGNANRFKTIEECRRTCVG; ends and bridges not checked; cysteine pairing not given here)","inhibition of IK, sensitivity difference between channels",Kv1.4-1.6-1.1-1.2,significant sensitivity difference
same,displacement of 125I-αDTX from the tetramer,[6],readily displaced
ShK: toxin competing with 125I-αDTX binding; parent of derivative ShK-Dap^22,antagonism of 125I-αDTX binding,"[6]; 2.5 μM 125I-αDTX, transfected HEK cells, FIG. 4C",to a greater extent than does the derivative ShK-Dap^22
α-dendrotoxin (QPRRKLCILHRNPGRCYDKIPAFYYNQKKKQCERFDWSGCGGNSNRFKTIEECRRTCIG) [αDTX],displacement of 125I-αDTX from the tetramer,[6],readily displaced

# Source: patent US20110086389A1, “Compositions and Methods for Expressing In-Frame Multimeric Proteins” (priority 2008, published 2011)
